Experimental data: patent US12077503B2, “Substituted cyclic amides and their use as herbicides” (FMC CORPORATION, priority 2015, dated 2024)

Key:
Type in all cases: in vivo
[1] = system: giant foxtail (Setaria faberi); assay: Test G Pre-Emergence Protocol; conditions: Setaria faberi, pre-emergence, 312 h, evaluated after 13 days
Procedure, shortened: (§1)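 One day after sowing, pots are treated with a spray of test compound formulated in acetone/water 50:50 plus 0.5% Tween 20, giving 15.625, 62.5 or 250 g/ha. Evaluation on a 0–100 damage scale follows 13 days of glasshouse growth.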

[2] = system: corn (Zea mays); assay: Test G Pre-Emergence Protocol; conditions: Zea mays, pre-emergence, 312 h, evaluated after 13 days
Procedure, shortened: as §1

[3] = system: velvetleaf (Abutilon theophrasti); assay: Test G Pre-Emergence Protocol; conditions: Abutilon theophrasti, pre-emergence, 312 h, evaluated after 13 days
Procedure, shortened: as §1

[4] = system: ivy-leaved morning glory (Ipomoea hederacea); assay: Test G Pre-Emergence Protocol; conditions: Ipomoea, pre-emergence, 312 h, evaluated after 13 days
Procedure, shortened: as §1

[5] = system: barnyardgrass (Echinochloa crus-galli); assay: Test G Pre-Emergence Protocol; conditions: Echinochloa crus-galli, pre-emergence, 312 h, evaluated after 13 days
Procedure, shortened: as §1

[6] = system: redroot pigweed (Amaranthus retroflexus); assay: Test G Pre-Emergence Protocol; conditions: Amaranthus retroflexus, pre-emergence, 312 h, evaluated after 13 days
Procedure, shortened: as §1

[7] = system: giant foxtail (Setaria faberi); assay: Test G Post-Emergence Protocol; conditions: Setaria faberi, post-emergence, 312 h
Procedure, shortened: (§2)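 Pot-grown seedlings, 8 days old, raised in a glasshouse at 24/16 °C day/night with 14 h light and 65% humidity, were sprayed post-emergence with test compound in acetone/water (50:50) plus 0.5% Tween 20 at 15.625, 62.5 or 250 g/ha. Damage was scored visually 13 days later on a 0–100 scale (100 = total damage).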

[8] = system: corn (Zea mays); assay: Test G Post-Emergence Protocol; conditions: Zea mays, post-emergence, 312 h
Procedure, shortened: as §2

[9] = system: velvetleaf (Abutilon theophrasti); assay: Test G Post-Emergence Protocol; conditions: Abutilon theophrasti, post-emergence, 312 h
Procedure, shortened: as §2

[10] = system: ivy-leaved morning glory (Ipomoea hederacea); assay: Test G Post-Emergence Protocol; conditions: Ipomoea, post-emergence, 312 h
Procedure, shortened: as §2

[11] = system: barnyardgrass (Echinochloa crus-galli); assay: Test G Post-Emergence Protocol; conditions: Echinochloa crus-galli, post-emergence, 312 h
Procedure, shortened: as §2

[12] = system: redroot pigweed (Amaranthus retroflexus); assay: Test G Post-Emergence Protocol; conditions: Amaranthus retroflexus, post-emergence, 312 h
Procedure, shortened: as §2

**Q.** Which pest or weed control at 15.625 g/ha ([1]; 15.625 g ai/ha, read-out: Foxtail, Giant damage rating (100=total damage to plant; 0=no damage to plant)) does the source give for COc1ccc(OC)c([C@H]2CN(C)C(=O)[C@@H]2C(=O)Nc2ccccc2F)c1 (racemic) [Compound 1453] here?
**A.** 40%

**Q.** And the pest or weed control at 62.5 g/ha ([1]; 62.5 g ai/ha, 100=total damage to plant, 0=no damage to plant, read-out: plant damage rating, Foxtail, Giant)?
**A.** 60%

**Q.** What about the pest or weed control at 250 g/ha ([1]; 250 g ai/ha, read-out: Foxtail, Giant damage rating (100=total damage to plant; 0=no damage to plant)) of the same compound?
**A.** 90%

**Q.** And the plant injury at 15.625 g/ha ([2]; 15.625 g ai/ha, read-out: Corn damage rating (100=total damage to plant; 0=no damage to plant))?
**A.** 0%

**Q.** What about the plant injury at 62.5 g/ha ([2]; 62.5 g ai/ha, 100=total damage to plant, 0=no damage to plant, read-out: plant damage rating, Corn) of the same compound?
**A.** 0%

**Q.** And the plant injury at 250 g/ha ([2]; 250 g ai/ha, read-out: Corn damage rating (100=total damage to plant; 0=no damage to plant))?
**A.** 0%

**Q.** What about the pest or weed control at 62.5 g/ha ([3]; 62.5 g ai/ha, 100=total damage to plant, 0=no damage to plant, read-out: plant damage rating, Velvetleaf) of the same compound?
**A.** 0%

**Q.** What about the pest or weed control at 250 g/ha ([3]; 250 g ai/ha, read-out: Velvetleaf damage rating (100=total damage to plant; 0=no damage to plant)) of the same compound?
**A.** 20%

**Q.** And the pest or weed control at 15.625 g/ha ([4]; 15.625 g ai/ha, read-out: Morning-glory, Ivy-leaved damage rating (100=total damage to plant; 0=no damage to plant))?
**A.** 0%

**Q.** What about the pest or weed control at 62.5 g/ha ([4]; 62.5 g ai/ha, 100=total damage to plant, 0=no damage to plant, read-out: plant damage rating, Morningglory, Ivy-leaved) of the same compound?
**A.** 0%

**Q.** And the pest or weed control at 250 g/ha ([4]; 250 g ai/ha, read-out: Morningglory, Ivy-leaved damage rating (100=total damage to plant; 0=no damage to plant))?
**A.** 0%

**Q.** And the pest or weed control at 15.625 g/ha ([5]; 15.625 g ai/ha, read-out: Barnyard grass damage rating (100=total damage to plant; 0=no damage to plant))?
**A.** 20%

**Q.** And the pest or weed control at 62.5 g/ha ([5]; 62.5 g ai/ha, 100=total damage to plant, 0=no damage to plant, read-out: plant damage rating, Barnyardgrass)?
**A.** 40%

**Q.** And the pest or weed control at 250 g/ha ([5]; 250 g ai/ha, read-out: Barnyardgrass damage rating (100=total damage to plant; 0=no damage to plant))?
**A.** 90%

**Q.** What about the pest or weed control at 15.625 g/ha ([6]; 15.625 g ai/ha, read-out: Pigweed, Redroot damage rating (100=total damage to plant; 0=no damage to plant)) of the same compound?
**A.** 0%

**Q.** What about the pest or weed control at 62.5 g/ha ([6]; 62.5 g ai/ha, 100=total damage to plant, 0=no damage to plant, read-out: plant damage rating, Pigweed, Redroot) of the same compound?
**A.** 0%

**Q.** And the pest or weed control at 250 g/ha ([6]; 250 g ai/ha, read-out: Pigweed, Redroot damage rating (100=total damage to plant; 0=no damage to plant))?
**A.** 0%

**Q.** And the pest or weed control at 15.625 g/ha ([7]; 15.625 g ai/ha, evaluated after 13 days (100=total damage to plant; 0=no damage to plant), read-out: Foxtail, Giant damage rating)?
**A.** 10%

**Q.** What about the pest or weed control at 62.5 g/ha ([7]; 62.5 g ai/ha, evaluated after 13 days, read-out: Foxtail, Giant damage rating (100=total damage to plant; 0=no damage to plant)) of the same compound?
**A.** 50%

**Q.** And the pest or weed control at 250 g/ha ([7]; 250 g ai/ha, evaluated after 13 days, read-out: damage to plant, Foxtail, Giant (100=total damage to plant; 0=no damage to plant))?
**A.** 50%

**Q.** What about the plant injury at 15.625 g/ha ([8]; 15.625 g ai/ha, evaluated after 13 days (100=total damage to plant; 0=no damage to plant), read-out: Corn damage rating) of the same compound?
**A.** 10%

**Q.** What about the plant injury at 62.5 g/ha ([8]; 62.5 g ai/ha, evaluated after 13 days, read-out: Corn damage rating (100=total damage to plant; 0=no damage to plant)) of the same compound?
**A.** 10%

**Q.** What about the plant injury at 250 g/ha ([8]; 250 g ai/ha, evaluated after 13 days, read-out: damage to plant, Corn (100=total damage to plant; 0=no damage to plant)) of the same compound?
**A.** 10%

**Q.** What about the pest or weed control at 15.625 g/ha ([9]; 15.625 g ai/ha, evaluated after 13 days (100=total damage to plant; 0=no damage to plant), read-out: Velvetleaf damage rating) of the same compound?
**A.** 0%

**Q.** What about the pest or weed control at 62.5 g/ha ([9]; 62.5 g ai/ha, evaluated after 13 days, read-out: Velvetleaf damage rating (100=total damage to plant; 0=no damage to plant)) of the same compound?
**A.** 0%

**Q.** What about the pest or weed control at 250 g/ha ([9]; 250 g ai/ha, evaluated after 13 days, read-out: damage to plant, Velvetleaf (100=total damage to plant; 0=no damage to plant)) of the same compound?
**A.** 0%

**Q.** What about the pest or weed control at 15.625 g/ha ([10]; 15.625 g ai/ha, evaluated after 13 days (100=total damage to plant; 0=no damage to plant), read-out: Morningglory, Ivy-leaved damage rating) of the same compound?
**A.** 0%

**Q.** And the pest or weed control at 62.5 g/ha ([10]; 62.5 g ai/ha, evaluated after 13 days, read-out: Morningglory, Ivy-leaved damage rating (100=total damage to plant; 0=no damage to plant))?
**A.** 0%

**Q.** What about the pest or weed control at 250 g/ha ([10]; 250 g ai/ha, evaluated after 13 days, read-out: damage to plant, Morningglory, Ivy-leaved (100=total damage to plant; 0=no damage to plant)) of the same compound?
**A.** 10%

**Q.** What about the pest or weed control at 15.625 g/ha ([11]; 15.625 g ai/ha, evaluated after 13 days (100=total damage to plant; 0=no damage to plant), read-out: Barnyardgrass damage rating) of the same compound?
**A.** 0%

**Q.** And the pest or weed control at 62.5 g/ha ([11]; 62.5 g ai/ha, evaluated after 13 days, read-out: Barnyardgrass damage rating (100=total damage to plant; 0=no damage to plant))?
**A.** 10%

**Q.** And the pest or weed control at 250 g/ha ([11]; 250 g ai/ha, evaluated after 13 days, read-out: damage to plant, Barnyardgrass (100=total damage to plant; 0=no damage to plant))?
**A.** 10%

**Q.** What about the pest or weed control at 15.625 g/ha ([12]; 15.625 g ai/ha, evaluated after 13 days (100=total damage to plant; 0=no damage to plant), read-out: Pigweed, Redroot damage rating) of the same compound?
**A.** 0%

**Q.** What about the pest or weed control at 62.5 g/ha ([12]; 62.5 g ai/ha, evaluated after 13 days, read-out: Pigweed, Redroot damage rating (100=total damage to plant; 0=no damage to plant)) of the same compound?
**A.** 0%

**Q.** And the pest or weed control at 250 g/ha ([12]; 250 g ai/ha, evaluated after 13 days, read-out: damage to plant, Pigweed, Redroot (100=total damage to plant; 0=no damage to plant))?
**A.** 0%
